In patent US4236010A, “Phenyl-quinolizidines” (Hoffmann-La Roche Inc., priority 1978, dated 1980):
Counter-ions that a name gives are not always drawn.

Experiments:
Writhing test (mouse) = assay type: in vivo; conditions: po, 1 h, male mice, p.o., 60 minutes after administration
Method: Eight male mice (20-22 g.) per dosage, were used for this test. Sixty minutes after oral administration of the test substance, the mice were injected intraperitoneally with 10 ml/kg of the test solution. Following a latent period of 5 minutes, the number of animals in which no more than one characteristic writhing symptom (convulsive stretching movement of the body) occurred over five minutes was registered.

Hot-plate test (mouse) = assay type: in vivo; conditions: po, 1 h, mice, p.o., 60 minutes after administration, plate 60°±0.5° C
Method: Eight mice (20-22 g) were used per dosage. Sixty minutes after oral administration of the test substance, the mice were placed on a heated metal plate of 60°±0.5° C. Untreated mice begin to lick their paws within a maximum of 10 seconds.

[1] = "Pole Climbing" test (rat); assay type: in vivo; conditions: ip, 6 h; for ED50: Rattus norvegicus, read-out: Pole-Climbing BCR (Block of Conditioned Reflex) ED50 i.p.; for ED10: rat, i.p., inhibition of the unconditioned reaction, ED 10, read-out: Pole-Climbing BUR (Block of Unconditioned Reflex) ED10 i.p.
Excerpt: "Pole Climbing" test (rat)
In this test, there was used, for each dosage, a group of 10 rats which had been trained to escape an electric shock, unconditioned stimulus, produced via the lattice floor immediately after an acoustic signal, conditioned stimulus, by jumping up a vertical isolated pole in the experimental cage.

[2] = target: T1, calf striatum (specific binding of [^3 H] spiroperidol on the receptor) (Bos taurus, UniProt P20288); assay: Spiroperidol-binding test (in vitro); conditions: 50% detachment of specific [^3 H] spiroperidol binding
T1 construct: calf striatum was used as the receptor; from tissue; host or cells: calf striatum
T1 sequence (P20288 whole entry): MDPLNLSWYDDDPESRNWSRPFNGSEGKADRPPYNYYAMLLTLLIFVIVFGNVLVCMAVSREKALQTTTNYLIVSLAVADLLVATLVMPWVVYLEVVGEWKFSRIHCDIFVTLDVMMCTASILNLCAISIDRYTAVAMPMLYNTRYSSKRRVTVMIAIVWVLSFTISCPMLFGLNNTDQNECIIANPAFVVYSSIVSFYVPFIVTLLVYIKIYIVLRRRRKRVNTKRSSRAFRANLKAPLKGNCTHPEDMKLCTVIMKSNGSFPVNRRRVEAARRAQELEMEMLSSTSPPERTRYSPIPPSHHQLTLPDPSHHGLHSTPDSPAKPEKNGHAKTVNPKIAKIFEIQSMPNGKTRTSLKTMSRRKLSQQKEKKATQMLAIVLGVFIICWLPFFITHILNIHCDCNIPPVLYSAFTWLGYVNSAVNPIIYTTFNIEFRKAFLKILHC
Method: Spiroperidol-binding test (in vitro)
In this in vitro test calf striatum was used as the receptor [Creese et al., Life Sci. 17, 993 (1975)] and incubated with [^3 H] spiroperidol in analogy to the method described by Fields et al., Brain Research 136, 578 (1977).

Work on `CCCC[C@]1(OC(C)=O)CCN2C[C@@H](c3ccccc3)CC[C@@H]2C1` (relative stereo) [rac-(9aβH)-2α-n-Butyl-7β-phenyl-octahydro-2H-quinozilin-2-yl acetate HCl] yielded an ED50 (Writhing test (mouse)) of 0.75 mg/kg and an ED50 (Hot-plate test (mouse)) of 25 mg/kg.

`CC(C)(C)[C@]1(O)CCN2C[C@@H](c3ccc(Cl)cc3Cl)CC[C@@H]2C1` [(-)-(2S,7R,9aR)-2-tert.-Butyl-7-(2,4-dichlorophenyl) octahydro-2H-quinolizin-2-ol HCl] gave an ED50 [1] of 4.7 mg/kg, an ED10 [1] of 3.8 mg/kg and an IC50 [2] of 41 nM.

For `CC(=O)O[C@]1(c2ccccc2)CCN2C[C@@H](c3ccccc3Cl)CC[C@@H]2C1` (relative stereo) [rac-(9aβH)-2β-Phenyl-7β-(o-chlorophenyl)-octahydro-2H-quinolizin-2-yl acetate HCl], the ED50 (Writhing test (mouse)) was 116 mg/kg and the ED50 (Hot-plate test (mouse)) was 284 mg/kg.

`CCC(=O)O[C@@]1(c2ccccc2)CCN2C[C@@H](c3cccc(OC)c3)CC[C@@H]2C1` (relative stereo) [rac-(9aβH)-2α-Phenyl-7β-(m-methoxyphenyl)-octahydro-2H-quinolizin-2-yl propionate HCl] gave an ED50 (Writhing test (mouse)) of 2.8 mg/kg and an ED50 (Hot-plate test (mouse)) of 12 mg/kg.

Molecule `CC(C)(C)[C@]1(OC(=O)C(F)(F)F)CCN2C[C@@H](c3ccccc3)CC[C@@H]2C1` (relative stereo) [rac-(9aβH)-2α-tert.Butyl-7β-phenyl-octahydro-2H-quinolizin-2-yl trifluoroacetate HCl] has an ED50 (Writhing test (mouse)) of 8.7 mg/kg and an ED50 (Hot-plate test (mouse)) of 86 mg/kg.

`CCCCC1(OC(C)=O)CCN2CC(c3ccccc3)CCC2C1.Cl` (single isomer, unassigned; (+)) [(+)-2-Butyloctahydro-7-phenyl-2H-quinolizin-2-yl acetate HCl] showed an ED50 (Writhing test (mouse)) of 0.19 mg/kg and an ED50 (Hot-plate test (mouse)) of 2.6 mg/kg.

Work on `O=c1[nH]c2cc(C(F)(F)F)ccc2n1[C@@H]1CCN2C[C@@H](c3ccccc3Cl)CC[C@@H]2C1` (relative stereo) [rac-1-[(9aβH)-7β-(o-Chlorophenyl)octahydro-2H-quinolizin-2α-yl]-5-trifluoromethyl-2-benzimidazolinone HCl] yielded an ED50 [1] of 0.21 mg/kg, an ED10 [1] of 0.41 mg/kg and an IC50 [2] of 10 nM.

In the case of `O=c1[nH]c2cc(Cl)ccc2n1[C@@H]1CCN2C[C@@H](c3ccccc3F)CC[C@@H]2C1` (relative stereo) [rac-1-[(9aβH)-7β-(o-Fluorophenyl)octahyro-2H-quinolizin-2α-yl]-5-chloro-2-benzimidazolinone HCl], the ED50 [1] is reported as 0.064 mg/kg and the ED10 [1] is reported as 0.175 mg/kg.

`CC(C)(C)[C@]1(O)CCN2C[C@@H](c3ccc(Cl)cc3Cl)CC[C@@H]2C1` (relative stereo) [rac-(9aβ H)-2α-tert.-Butyl-7β-(2,4-dichlorophenyl) octahydro-2H-quinolizin-2-ol HCl] showed an ED50 [1] of 6.4 mg/kg, an ED10 [1] of 5.4 mg/kg and an IC50 [2] of 79 nM.

For `Cc1cc2[nH]c(=O)n([C@@H]3CCN4C[C@@H](c5ccccc5Cl)CC[C@@H]4C3)c2cc1C` (relative stereo) [rac-1-[(9aβH)-7β-(o-Chlorophenyl)octahydro-2H-quinolizin-2α-yl]-5,6-dimethyl-2-benzimidazolinone HCl], the ED50 [1] was 1.75 mg/kg, the ED10 [1] was 4.55 mg/kg and the IC50 [2] was 5 nM.
